Measurements from patent publication US11180462B2, “Microbiocidal oxadiazole derivatives” (SYNGENTA PARTICIPATIONS AG, priority 2015, dated 2021).

Experiments:
[1] = tested on: Puccinia recondita f. Sp. Tritici; assay: Fungicidal activity against Puccinia recondita f. sp. tritici / wheat / leaf disc preventative (brown rust); assay type: in vivo; settings: foliar, 200 ppm in the applied formulation, wheat leaf segments, preventative, compared to untreated control leaf disks, read-out: disease control
Procedure, shortened: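 Percent disease control relative to untreated check segments is scored once disease develops, 7 to 9 days after application. Wheat cv. Kanzler segments receive compound spray (200 ppm in formulation) one day before spore inoculation, then sit at 19° C. and 75% rh under 12 h light/12 h dark.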

[2] = tested on: Puccinia recondita f. Sp. Tritici; assay: Fungicidal activity against Puccinia recondita f. sp. tritici / wheat / leaf disc curative (brown rust); assay type: in vivo; settings: foliar, 24 h, 200 ppm in the applied formulation, wheat leaf segments, curative (applied 1 day after inoculation), compared to untreated control leaf disks, read-out: disease control
Procedure, shortened: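 Curative test on wheat leaf segments (cv. Kanzler) on agar, inoculated with spore suspension and held dark at 19° C, 75% RH; formulated compound in water applied 1 day after inoculation. Incubated at 19° C, 75% RH, 12 h light/12 h dark; percent disease control versus untreated scored 6 to 8 days after application.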

Phakopsora Pachyrhizi = assay: Fungicidal activity against Phakopsora pachyrhizi / soybean / leaf disc preventative (Asian soybean rust); assay type: in vivo; settings: foliar, 200 ppm in the applied formulation, soybean leaf disks, compared to untreated control leaf disks, read-out: disease control
Procedure, shortened: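 Scored 12 to 14 days post-application as percent control relative to untreated check discs, rust spores were sprayed under the disc one day after compound treatment. Incubation: 20°C, 75% rh, first 24–36 h in darkness, then 12 h daily light; discs kept on water agar.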

[3] = tested on: Glomerella lagenarium (Colletotrichum lagenarium); assay: Fungicidal activity against Glomerella lagenarium (Colletotrichum lagenarium) liquid culture / cucumber / preventative (anthracnose); assay type: cell-based; settings: Colletotrichum orbiculare; 20 ppm in the applied formulation; liquid culture (PDB), growth inhibition measured photometrically after 3 to 4 days; compared to untreated control; read-out: disease control
Procedure, shortened: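 Percent activity against the untreated check was derived from photometric growth measurements made 2 to 7 days after conidia in potato dextrose broth were combined with compound at 20 ppm. Cultures were kept dark at 24 °C and 96% humidity.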

CCOCC(=O)N(OC)C(C)c1ccc(-c2noc(C(F)(F)F)n2)cc1 (centres unmarked) [Compound 1.264, 2-ethoxy-N-methoxy-N-[1-[4-[5-(trifluoromethyl)-1,2,4-oxadiazol-3-yl]phenyl]ethyl]-acetamide]
≥ 80%: pest or weed control at 200 ppm [1] | pest or weed control at 200 ppm [2] | pest or weed control at 200 ppm (Phakopsora Pachyrhizi) | inhibition of growth at 20 ppm [3]

O=C(C1CCCC1)N(Cc1ccc(-c2noc(C(F)(F)F)n2)cc1)C1CC1 [Compound 1.100, N-cyclopropyl-N-[[4-[5-(trifIuoromethyl)-1,2,4-oxadiazol-3-yl]phenyl]methyl]-cyclopentane-carboxamide]
≥ 80%: pest or weed control at 200 ppm [1] | pest or weed control at 200 ppm [2] | pest or weed control at 200 ppm (Phakopsora Pachyrhizi) | inhibition of growth at 20 ppm [3]

C#CCN(Cc1ccc(-c2noc(C(F)(F)F)n2)cc1)C(=O)C1CCOC1 (centres unmarked) [Compound 1.171, N-prop-2-ynyl-N-[[4-[5-(trifluoromethyl)-1,2,4-oxadiazol-3-yl]phenyl]methyl]-tetrahydrofuran-3-carboxamide]
≥ 80%: pest or weed control at 200 ppm [1] | pest or weed control at 200 ppm [2] | pest or weed control at 200 ppm (Phakopsora Pachyrhizi) | inhibition of growth at 20 ppm [3]

CC(C)N(Cc1ccc(-c2noc(C(F)(F)F)n2)cc1)C(=O)CC(F)(F)F [Compound 1.686, 3,3,3-trifluoro-N-isopropyl-N-[[4-[5-(trifluoromethyl)-1,2,4-oxadiazol-3-yl]phenyl]methyl]-propanamide]
≥ 80%: pest or weed control at 200 ppm [1] | pest or weed control at 200 ppm [2] | pest or weed control at 200 ppm (Phakopsora Pachyrhizi) | inhibition of growth at 20 ppm [3]

CCCNC(=O)N(Cc1ccc(-c2noc(C(F)(F)F)n2)cc1)OC [Compound 3.21, 1-methoxy-3-propyl-1-[[4-[5 - (trifluoromethyl)-1,2,4-oxadiazol-3-yl]phenyl]methyl]urea]
≥ 80%: pest or weed control at 200 ppm [1] | pest or weed control at 200 ppm [2] | pest or weed control at 200 ppm (Phakopsora Pachyrhizi) | inhibition of growth at 20 ppm [3]

O=C(C1CCCO1)N(O)Cc1ccc(-c2noc(C(F)(F)F)n2)cc1 (centres unmarked) [Compound 1.770, N-hydroxy-N-[[4-[5-(trifluoromethyl)-1,2,4-oxadiazol-3-yl]phenyl]methyl]-tetrahydrofuran-2-carboxamide]
≥ 80%: pest or weed control at 200 ppm [1] | pest or weed control at 200 ppm [2] | pest or weed control at 200 ppm (Phakopsora Pachyrhizi) | inhibition of growth at 20 ppm [3]

CC(=O)N(O)Cc1ccc(-c2noc(C(F)(F)F)n2)cc1 [Compound 1.773, N-hydroxy-N-[[4-[5-(trifluoromethyl)-1,2,4-oxadiazol-3-yl]phenyl]methyl]-acetamide]
≥ 80%: pest or weed control at 200 ppm [1] | pest or weed control at 200 ppm [2] | pest or weed control at 200 ppm (Phakopsora Pachyrhizi) | inhibition of growth at 20 ppm [3]

CON(Cc1ccc(-c2noc(C(F)(F)F)n2)cc1)C(=O)NC1CCCC1 [Compound 3.23, 3-cyclopentyl-1-methoxy-1-[[4-[5-(trifluoromethyl)-1,2,4-oxadiazol-3-yl]phenyl]methyl]urea]
≥ 80%: pest or weed control at 200 ppm [1] | pest or weed control at 200 ppm [2] | pest or weed control at 200 ppm (Phakopsora Pachyrhizi) | inhibition of growth at 20 ppm [3]

CCON(Cc1ccc(-c2noc(C(F)(F)F)n2)cc1)C(=O)CCOC [Compound 1.618, N-ethoxy-3-methoxy-N-[[4-[5-(trifluoromethyl)-1,2,4-oxadiazol-3-yl]phenyl]methyl]-propanamide]
≥ 80%: pest or weed control at 200 ppm [1] | pest or weed control at 200 ppm [2] | pest or weed control at 200 ppm (Phakopsora Pachyrhizi) | inhibition of growth at 20 ppm [3]

CCC(=O)ON(Cc1ccc(-c2noc(C(F)(F)F)n2)cc1)C(=O)CC [Compound 1.760, [propanoyl-[[4-[5-(trifluoromethyl)-1,2,4-oxadiazol-3-yl)phenyl]methyl]-amino] propanoate]
≥ 80%: pest or weed control at 200 ppm [1] | pest or weed control at 200 ppm [2] | pest or weed control at 200 ppm (Phakopsora Pachyrhizi) | inhibition of growth at 20 ppm [3]

CC1(C(=O)N(Cc2ccc(-c3noc(C(F)(F)F)n3)cc2)CC(F)(F)F)CC1 [Compound 1.696, 1-methyl-N-(2,2,2-trifluoroethyl)-N-[[4-[5-(trifluoromethyl)-1,2,4-oxadiazol-3-yl]phenyl]methyl]-cyclopropane-carboxamide]
≥ 80%: pest or weed control at 200 ppm [1] | pest or weed control at 200 ppm [2] | pest or weed control at 200 ppm (Phakopsora Pachyrhizi) | inhibition of growth at 20 ppm [3]

CCCN(Cc1ccc(-c2noc(C(F)(F)F)n2)cc1)C(=O)C1(C)CC1 [Compound 1.658, 1-methyl-N-propyl-N-[[4-[5-(trifluoromethyl)-1,2,4-oxadiazol-3-yl]phenyl]methyl]-cyclopropane-carboxamide]
≥ 80%: pest or weed control at 200 ppm [1] | pest or weed control at 200 ppm [2] | pest or weed control at 200 ppm (Phakopsora Pachyrhizi) | inhibition of growth at 20 ppm [3]

CCC(=O)N(CCO)Cc1ccc(-c2noc(C(F)(F)F)n2)cc1 [Compound 1.591, N-(2-hydroxyethyl)-N-[[4-[5-(trifiuoromethyl)-1,2,4-oxadiazol-3-yl]phenyl]methyl]-propanamide]
≥ 80%: pest or weed control at 200 ppm [1] | pest or weed control at 200 ppm [2] | pest or weed control at 200 ppm (Phakopsora Pachyrhizi) | inhibition of growth at 20 ppm [3]

C=CCNC(=O)N(Cc1ccc(-c2noc(C(F)(F)F)n2)cc1)OC [Compound 3.20, 3-allyl-1-methoxy-1-[[4-[5-(trifluoromethyl)-1,2,4-oxadiazol-3-yl]phenyl]methyl]urea]
≥ 80%: pest or weed control at 200 ppm [1] | pest or weed control at 200 ppm [2] | pest or weed control at 200 ppm (Phakopsora Pachyrhizi) | inhibition of growth at 20 ppm [3]

CON(Cc1ccc(-c2noc(C(F)(F)F)n2)cc1)C(=O)C(C)C [Compound 1.12, N-methoxy-2-methyl-N-[[4-[5-(trifluoromethyl)-1,2,4-oxadiazol-3-yl]phenyl]methyl]-propanamide]
≥ 80%: pest or weed control at 200 ppm [1] | pest or weed control at 200 ppm [2] | pest or weed control at 200 ppm (Phakopsora Pachyrhizi) | inhibition of growth at 20 ppm [3]

COC(C)C(=O)N(Cc1ccc(-c2noc(C(F)(F)F)n2)cc1)CC1CC1 (centres unmarked) [Compound 1.245, N-(cyclopropylmethyl)-2-methoxy-N-[[4-[5-(trifluoromethyl)-1,2,4-oxadiazol-3-yl]phenyl]methyl]-propanamide]
≥ 80%: pest or weed control at 200 ppm [1] | pest or weed control at 200 ppm [2] | pest or weed control at 200 ppm (Phakopsora Pachyrhizi) | inhibition of growth at 20 ppm [3]

CN(Cc1ccc(-c2noc(C(F)(F)F)n2)cc1)C(=O)C1CCC1 [Compound 1.518, N-methyl-N-[[4-[5-(trifluoromethyl)-1,2,4-oxadiazol-3-yl]phenyl]methyl]-cyclobutane-carboxamide]
≥ 80%: pest or weed control at 200 ppm [1] | pest or weed control at 200 ppm [2] | pest or weed control at 200 ppm (Phakopsora Pachyrhizi) | inhibition of growth at 20 ppm [3]

COCCN(Cc1ccc(-c2noc(C(F)(F)F)n2)cc1)C(=O)C1CC1(F)F (centres unmarked) [Compound 1.327, 2,2-difluoro-N-(2-methoxyethyl)-N-[[4-[5-(trifluoromethyl)-1,2,4-oxadiazol-3-yl]phenyl]methyl]-cyclopropane-carboxamide]
≥ 80%: pest or weed control at 200 ppm [1] | pest or weed control at 200 ppm [2] | pest or weed control at 200 ppm (Phakopsora Pachyrhizi) | inhibition of growth at 20 ppm [3]

O=C(C1CSC1)N(Cc1ccc(-c2noc(C(F)(F)F)n2)cc1)C1CC1 [Compound 1.104, N-cyclopropyl-N-[[4-[5-(trifluoromethyl)-1,2,4-oxadiazol-3-yl]phenyl]methyl]-thietane-3-carboxamide]
≥ 80%: pest or weed control at 200 ppm [1] | pest or weed control at 200 ppm [2] | pest or weed control at 200 ppm (Phakopsora Pachyrhizi) | inhibition of growth at 20 ppm [3]

CC(=O)N(Cc1ccc(-c2noc(C(F)(F)F)n2)cc1)CC(F)(F)F [Compound 1.705, N-(2,2,2-trifluoroethyl)-N-[[4-[5-(trifluoromethyl)-1,2,4-oxadiazol-3-yl]phenyl]methyl]-acetamide]
≥ 80%: pest or weed control at 200 ppm [1] | pest or weed control at 200 ppm [2] | pest or weed control at 200 ppm (Phakopsora Pachyrhizi) | inhibition of growth at 20 ppm [3]
